Measured values as given in patent US20210323918A1, “COMPOSITIONS AND METHODS FOR SUPPRESSING AND/OR TREATING A GROWTH RELATED DISEASE AND/OR A CLINICAL CONDITION THEREOF” (CK Biotech Inc., priority 2018, published 2021).

System: growth plates of proximal tibiae of mice
Assay: Growth plate senescence and longitudinal bone growth in mice
Assay type: in vivo
Method: Animals. Cxxc5^−/− mice were established in a previous study. See e.g., Kim H. Y. et al. (2015), CXXC5 is a negative feedback regulator of the Wnt/beta-catenin pathway involved in osteoblast differentiation. CELL DEATH DIFFER 22: 912-920. To manipulate growth plate senescence by estrogen, 3-week-old […] Cxxc5^−/− male mice received weekly intramuscular (i.m.) injections of either 70 μg/kg estradiol (E2) cypionate (Sigma-Aldrich) or vehicle (cottonseed oil) for 3 weeks. To investigate the effects of KY19382 treatment on longitudinal bone growth, C57BL/6 male mice were purchased from KOATECH (Gyeonggido, Korea). KY19382 (0.1 ing/kg) was administered daily by intraperitoneal (i.p.) injection to 3- and 7-week-old mice for 2 weeks or to 3-week-old mice for 10 weeks. For BrdU labeling experiments, mice were i.p. injected with 50 mg/kg BrdU (Sigma-Aldrich) before 24 hours to sacrifice. All animal procedures were approved by the Institutional Animal Care and Use Committee (IACUC) of Yonsei University (Korea) and conducted based on the guidelines of the Korean Food and Drug Administration.
Radiographic and histochemical analyses. Plain radiographs were taken using an X-ray apparatus (KODAK DXS 4000 Pro SYSTEM; Carestream Health Rochester, N.Y.). The tissues were fixed in 4% paraformaldehyde (PFA), decalcified in 10% EDTA (pH 7.4), dehydrated, embedded in paraffin, and sectioned to 4 μm thickness (Leica Microsystems, Wetzlar, Germany). The tissues sections were rehydrated and used for further analyses including H&E, TRAP, and itnmunohistochemical (IHC) staining. To perform IHC staining, the sections were incubated with citrate buffer (pH 6.0) at 80° C. for 30 minutes, with 0.05% trypsin working solution (pH 7.8) for 30 minutes at 37° C., or with 0.5% pepsin (Sigma-Aldrich) for 15 minutes at 37° C. Then, the sections were blocked with 5% normal goat serum (NGS; Vector Laboratories, Burlingame, Calif.) and 0.3% triton-x-100 in PBS for 1 hour at room temperature. For 3,3′-diaminobensidine (DAB) staining, the sections were incubated with 0.345% H2O2 for 15 minutes. Before incubating the sections with mouse primary antibody, mouse IgG was blocked using a M.O.M kit (Vector Laboratories). The sections were incubated at 4° C. overnight with the following primary antibodies: anti-β-catenin (BD Bioscience, San Jose, Calif., #610154; 1:50), anti-CXXC5 l (1:200; lab-made) anti-BrdU (DAKO, Carpinteria, Calif., M0744; 1:200), anti-COL2A1 (ThermoFisher Scientific, MA, PAS-11462; 1:100), anti-Ki67 (Abcam, Cambridge, UK, ab15580; 1:200), and anti-RUNX2 (Abeam, ab23981; 1:200). Then, the sections were incubated at room temperature for 1 hour with biotinylated anti-mouse (Vector Laboratories, BA-9200; 1:200) or biotinylated anti-rabbit (Vector Laboratories, BA-1000; 1:200) secondary antibodies. The sections were then incubated in avidin-biotin complex solutions (Vector Laboratories), stained with a DAB kit (Vector Laboratories) for 3-30 minutes, and counterstained with methyl green (Sigma-Aldrich). All incubations were conducted in humid chambers. […] For fluorescence staining, the sections were incubated with primary antibody at 4° C. overnight, followed by incubation with anti-mouse Alexa Fluor 488 (ThermoFisher Scientific, A11008; 1:200) or anti-rabbit Alex Fluor 555 (ThermoFisher Scientific, A21428; 1:200) secondary antibodies at room temperature for 1 hour. The sections were then counterstained with DAPI (Sigma-Aldrich) for 5 minutes and mounted in Gel/Mount media (Biomeda Corporation). All incubations were conducted in dark humid chambers. The fluorescent signals were visualized using a LSM700 META confocal microscope (Carl Zeiss Inc., Thornwood, N.Y.) at excitation wavelengths of 488 nm (Alexa Fluor 488), 543 nm (Alexa Fluor 555), and 405 nm (DAPI).
Immunoblot analyses. […] Protein samples were separated on a 8-12% sodium dodecylsulfate polyacrylamide gel electrophoresis (SDS-PAGE) and transferred to a nitrocellulose membrane (Whatman). […]

[1] = 3-week-old mice, 0.1 mg/kg daily for 2 weeks
[2] = 7-week-old mice, 0.1 mg/kg i.p. daily for 2 weeks

Compound | structural senescence of the tibial growth plate (Cxxc5−/− mice, E2 cypionate 70 μg/kg i.m. once a week for 3 weeks) | length of tibiae (0.1 mg/kg daily for 10 weeks, mice from 3 to 13 weeks of age, vs vehicle) | height of each growth plate zone and BrdU-positive cells [1] | β-catenin-expressing chondrocytes [1] | number of TRAP-positive foci in the growth plate/trabecular interface (3-week-old mice, 0.1 mg/kg daily for 2 weeks, vs vehicle) | nuclear β-catenin in growth plate chondrocytes [2] | numbers of proliferative and hypertrophic chondrocytes per column (BrdU- and RUNX2-positive cells) [2] | total growth plate height, monitored by COL2A1 immunostaining [2] | β-catenin and chondrogenic markers (COL2A1, RUNX2, MMP13) in the growth plate, immunoblot [2] | TRAP-positive foci (mice treated from 7 to 9 weeks of age, 0.1 mg/kg, vs vehicle)
17β-estradiol [Compound E2] | hardly observed | – | – | – | – | – | – | – | – | –
CO/N=C1/C(=C2/C(=O)Nc3cc(Cl)c(Cl)cc32)Nc2ccccc21 [KY19382, 5,6-dichloroindirubin-3′-methoxime] | – | significantly increased | elevated | increased | not different | dramatically increased | increased numbers | significantly increased | increased | elevated
